We go through 1 compound from patent US20160361244A1, “USE OF THE INHIBITOR OF STEROID SULFATASES STX64 FOR TREATING AGING” (U[…] DE OLAVIDE, priority 2013, published 2016).

For the assay, the system named is wild type C. elegans. Kind of assay: Longevity curves of C. elegans in the presence of the steroid sulfatase inhibitor. The class given is in vivo. The note with it: for longevity (longevity curve) versus control population exposed to the inhibitor solvent (DMSO): 25° C., p=0.0139, n>100, FIG. 3. The procedure:
In order to generate the longevity curves, the strains under study and their pertinent controls were first subjected to an egg preparation in order to prevent contaminations and synchronise them at the embryonic stage, and, subsequently, they were incubated at 16° C. In order to prevent interferences caused by physiological stresses resulting from this process, they were allowed to grow to the following generation. 5 or 6 L4 per plate were then transferred to 4 plates, and were once again incubated at 16° C. to L4, the stage selected to start the longevity curves.
On day zero, 120 L4 of each strain were transferred to new plates, 20 worms per plate, and incubated at the temperature at which the assay was subsequently performed, i.e. 25° C.
During the first week of the curves, the nematodes were transferred to new plates every 2 days, in order to prevent confusions with potential descendants. Subsequently, they were checked every 2 or 3 days, and those specimens that were lost or dead for non-physiological reasons were withdrawn from the study. The individuals were transferred to new plates every 5 days in order to maintain optimal growth conditions in the plates. The specimens were considered to be dead when they ceased to respond upon being softly touched with the platinum wire.
The longevity was studied in the presence of the steroid sulfatase inhibitor STX64 (SIGMA, S1950-5MG) diluted in DMSO at 5 μg/μl. […] The preparation and synchronisation of the nematodes until day=0 was the same as in the preceding case, the only difference being that the nematodes were transferred to fresh plates every two or three days until the curve was completed.
We used the GraphPad Prism 5 programme (Version 5.0a, for Mac OS X. 1992-2008 GraphPad Software, Inc.) in the survival curve mode to represent the longevity curves, and the Kaplan-Meier method was used to perform the statistical analysis thereof. […]

On to `NS(=O)(=O)Oc1ccc2c3c(c(=O)oc2c1)CCCCC3` [STX64, Irosustat], for which, where the note is “C. elegans, FIG. 3”, the “effect of treatment on ageing” value is recorded as “delayed ageing”. In addition, the “longevity (longevity curve) versus control population exposed to the inhibitor solvent (DMSO)” value is given as “lives significantly longer” (wild type population supplemented with 0.5 μg/ml) and “lives significantly longer” (wild type population supplemented with 1 μg/ml).
